Laboratory results published in patent publication US12295997B2, “Prostate neoantigens and their uses” (Janssen Biotech, Inc., priority 2020, dated 2025).

System: CD8+ and CD4+ T cells (autologous CD3+ Pan-T cells isolated from human normal PBMCs)
Assay: Exogenous autologous normal donor restimulation assay (15-mer overlapping peptide pools on CD1c+ dendritic cells, TNFα/IFNγ flow cytometry)
Type: cell-based
Conditions: 15-mer overlapping peptide pool; for Max. Fold Change over background CD4+ TNFαINFγ double positive DP / Max. Fold Change over background CD8+ TNFαINFγ double positive DP / Max. Frequency of CD4+ TNFαINFγ DP / Max. Frequency of CD8+ TNFαINFγ DP: Table 28, additional neoantigens, highest across normal donors; for Maximum Fold Change Over Background CD4+ cells / Maximum Fold Change Over Background CD8+ cells / Maximum Frequency of TNFα/IFNγ Double Positive CD4+ T cells / Maximum Frequency of TNFα/IFNγ Double Positive CD8+ T cells: Table 25; for Maximum Fold Change Over Background CD4+ cells: TNFα+IFNγ+ CD4+ T cells; for Maximum Fold Change Over Background CD4+ cells / Maximum Fold Change Over Background CD8+ cells: highest fold change over negative control across normal donors; for Maximum Fold Change Over Background CD8+ cells: TNFα+IFNγ+ CD8+ T cells; for Maximum Frequency of TNFα/IFNγ Double Positive CD4+ T cells / Maximum Frequency of TNFα/IFNγ Double Positive CD8+ T cells: highest frequency across normal donors
Description: CD1c+ Dendritic Cells (DC) isolated from human normal PBMCs were thawed using media (IMDM (Gibco) supplemented with glutamine, HEPES, 5% human serum (Sigma), and 1× Pen-Strep). DC cells were resuspended in media supplemented with IL-4 (Peprotech, 80 ng/mL) and GM-CSF (Gibco, 80 ng/mL), plated in 6 well microplates, and rested overnight at 37° C. (5% CO2). The following day, DC cells were counted and plated in a 96 well round bottom microplate at a concentration of 30,000 viable cells per well. Lyophilized peptides (15-mer overlapping peptides) were solubilized in 100% DMSO and pooled by neoantigen to between 5 mg/mL and 20 mg/mL. Neoantigen peptides pools were added to DCs for a final concentration of […] and rested for 2 hours at 37° C. (5% CO2). CEF Peptide Pool “Plus” (Cellular Technologies, Ltd.) was utilized as a positive control and DMSO at the same final concentration as the experimental peptides was utilized as a negative control. After 2 hours, DC cells were irradiated with 50 gray of ionizing radiation. Autologous CD3+ Pan-T cells isolated from human normal PBMCs were thawed using media. Following irradiation, autologous Pan-T cells were added to the irradiated DCs at 300,000 viable cells per well. Human IL-15 (Peprotech) was added to all wells at final concentration of 10 ng/mL.
Plates were incubated at 37° C. (5% CO2) for a total of 12 days. Media was refreshed every 2-3 days with IL-15 (10 ng/mL final concentration) and IL-2 (R&D systems, 10 IU/mL final concentration). On day 11 cells were re-stimulated with identical experimental peptide pools or controls, at same concentration as peptide stimulation on Day 1. Protein Inhibitor Cocktail (eBioscience) was added to every well and plate was incubated overnight at 37° C. (5% CO2).
On day 12, cells were stained for intracellular flow cytometry analysis. The cells were washed with PBS and stained with Live/Dead Fixable Aqua Dead Cell stain (Thermo-Fisher). Following the live/dead stain, cells were blocked using Biotin-Free Fc Receptor Blocker (Accurate Chemical & Scientific Corp). Extracellular cellular flow panel (1 μL/antibody per well in 50 μL) consisted of CD3 PerCP-Cy5.5 (Biolegend), CD4 BV421 (Biolegend), and CD8 APC-Cy7 (Biolegend). After extracellular staining, cells were fixed using Foxp3/fTranscription Factor Staining Buffer Set (eBioscience) and stained for intracellular proteins (1:50 dilution) using TNFα FITC (R&D Systems) and IFNγ BV785 (Biolegend). Cells were washed and resuspended in stain buffer and analyzed using a BD Celesta flow cytometer.
Flow cytometry cell staining analysis was completed using FlowJo v10. Cells were gated on live, singlet, CD3+ cells. The CD8+ and CD4+ T cells were analyzed for TNFα/IFNγ expression and the frequency of double positive TNFα/IFNγ CD8+ and the frequency of double positive TNFα/IFNγ CD4+ T cells were recorded. Responses were assessed to be positive when the frequency of double positive TNFα/IFNγ CD8+ or TNFα/IFNγ CD4+ T cells due to stimulation with an experimental peptide pool was increased greater than or equal to 3-fold over the DMSO only negative control for that donor and at least 0.01%.
Overlapping 15-mer peptides were designed to span each neoantigen incorporated into NeoGAd20 and NeoMVA to assess their ability to activate T cells using the exogenous autologous normal donor restimulation assay described in Example 1 as pools using TNFα and IFNγ production by CD8^+ and CD4^+ T cells as a readout.
Immunogenicity of various additional identified neoantigens was assessed. Overlapping 15-mer peptides were designed to span each neoantigen similarly to what was done in Example 11 to assess their ability to activate T cells using the exogenous autologous normal donor restimulation assay described in Example 1 as pools using TNFα and IFNγ production by CD8^+ and CD4^+ T cells as a readout.

Substance	Max. Fold Change over background CD4+ TNFαINFγ double positive DP	Max. Fold Change over background CD8+ TNFαINFγ double positive DP	Max. Frequency of CD4+ TNFαINFγ DP	Max. Frequency of CD8+ TNFαINFγ DP	Maximum Fold Change Over Background CD4+ cells	Maximum Fold Change Over Background CD8+ cells	Maximum Frequency of TNFα/IFNγ Double Positive CD4+ T cells	Maximum Frequency of TNFα/IFNγ Double Positive CD8+ T cells
FMIGELVGELCCQLTFRLPFLESLCQAVVTQALRFNPSFQEVCIYQDTDLM (listed as Homo sapiens) [AS2, SLC30A4 alternative splicing]	110.68	5.06	0.86	0.09				
VVGRRHETAPQPLLVPDRAGGEGGA (listed as Homo sapiens) [AS5, DHDH alternative splicing]	8.71	2.13	0.1	0.16				
QWQHYHRSGEAAGTPLWRPTRN (listed as Homo sapiens) [AS19, NWD1 alternative splicing]					2.59	5.87	0.1	0.63
DLRRVATYCAPLPSSWRPGTGTTIPPRMRSC (listed as Homo sapiens) [FUS23, NUDT14->JAG2 gene fusion]	12.77	11.05	0.12	0.62				
LELELSEGVCFRLR (listed as Homo sapiens) [FUS10, DIP2A->DIP2A-IT1 gene fusion]	10.86	2.42	0.04	0.09				
KENDVREVCDVYLQMQIFFHFKFRSYFH (listed as Homo sapiens) [AS10, CHRNA5 alternative splicing]	3.97	4.33	0.23	0.08				
HVVGYGHLDTSGSSSSSSWP (listed as Homo sapiens) [FUS15, D2HGDH->GAL3ST2 gene fusion]					2.79	1.75	0.039	0.028
FKKFDGPCGERGGGRTARALWARGDSVLTPALDPQTPVRAPSLTRAAAAV (listed as Homo sapiens) [AS47, AGRN alternative splicing]					2.58	4.80	0.031	0.240
RTALTHNQDFSIYRLCCKRGSLCHASQARSPAFPKPVRPLPAPITRITPQLGGQSDSSQPLLTTGRPQGWQDQALRHTQQASPASCATITIPIHSAALGDHSGDPGPAWDTCPPLPLTTLIPRAPPPYGDSTARSWPSRCGPLG [MS3]					13.61	36.15	0.09	0.47
FARKMLEKVHRQHLQLSHNSQE (listed as Homo sapiens) [AS12, EVPL alternative splicing]	7.32	6.03	0.28	0.19				
FVQGKDWGVKKFIRRDF (listed as Homo sapiens) [Neoantigen M12, SPOP F133V]					8.94	6.67	0.05	0.12
EAFQRAAGEGGPGRGGARRGARVLQSPFCRAGAGEWLGHQSLR (listed as Homo sapiens) [AS41, RHPN1 alternative splicing]					2.20	190.60	0.022	9.530
VETLENANSFSSGIQPLLCSLIGLENPT (listed as Homo sapiens) [AS58, CREB3L1 alternative splicing]	6.27	4.54	0.24	0.6				
MS4 (SYFSLTNIFNFV; listed as Homo sapiens)	367.35	24.13	2.43	0.76				
MS11 (GSLHFHEVLK; listed as Homo sapiens)	3.4	3.81	0.13	0.12				
KVLNEIDAVVTVPPSLSTSQIPQGCCIIL (listed as Homo sapiens) [AS20, PFKFB4 alternative splicing]	1.36	3.81	0.05	0.12				
IIDSDKIMAVCMGCLLTRHVQCQAMEMQQ (listed as Homo sapiens) [AS54, ABCC4 alternative splicing]	17.87	88.15	0.18	8.33				
PEPRRLSPGEPRGRPRKGWGIWGLCGARVGPKAWR (listed as Homo sapiens) [AS42, SLC39A4 alternative splicing]	24.58	4.65	0.59	0.69				
WCPLDLRLGSTGCLTCRHHQTSHE (listed as Homo sapiens) [AS4, NCAPD3 alternative splicing]	37.38	5.4	1.43	0.17				
